According to ChEMBL document CHEMBL1201862, “PubChem BioAssay data set” (2004):
The source made the active and inactive calls.

What was measured:
[1] = biological target: Peroxisome proliferator-activated receptor gamma/Nuclear receptor coactivator 3 (Homo sapiens, UniProt P37231); assay: (§1) TR-FRET dose response biochemical High Throughput Screening assay for agonists of the steroid receptor coactivator 3 (SRC-3) recruitment by the peroxisome proliferator-activated receptor gamma (PPAR gamma): non-selective agonists. [Related pubchem assays: 1301 (Confirmation screen.), 1048 (Primary screen.)]; assay type: functional
[2] = biological target: T1, Carboxy-terminal domain RNA polymerase II polypeptide A small phosphatase 1 (Homo sapiens, UniProt Q9GZU7); assay: inhibitors of CTDSP1, concentration-response testing, biochemical assay, absorbance-based, actives from ultra-high-throughput screening (AID 540297); assay type: functional
T1 sequence (Q9GZU7 whole entry): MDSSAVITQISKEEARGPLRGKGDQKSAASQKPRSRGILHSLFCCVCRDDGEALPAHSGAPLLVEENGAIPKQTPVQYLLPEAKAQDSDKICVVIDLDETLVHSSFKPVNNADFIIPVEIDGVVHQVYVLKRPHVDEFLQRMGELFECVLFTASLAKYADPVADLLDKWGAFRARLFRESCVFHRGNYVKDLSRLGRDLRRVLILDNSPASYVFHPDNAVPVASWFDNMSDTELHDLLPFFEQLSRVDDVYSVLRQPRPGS

[3] = biological target: Peroxisome proliferator-activated receptor gamma/Nuclear receptor coactivator 1 (Homo sapiens, UniProt P37231); assay: as §1, with “1 (SRC-1)” for “3 (SRC-3)”, “assays (depositor defined):AID1300, AID1808, AID504735, AID631]” for “assays: 1301 (Confirmation screen.), 1048 (Primary screen.)]”; assay type: protein assay
Chain of Peroxisome proliferator-activated receptor gamma/Nuclear receptor coactivator 1 (P37231 whole entry): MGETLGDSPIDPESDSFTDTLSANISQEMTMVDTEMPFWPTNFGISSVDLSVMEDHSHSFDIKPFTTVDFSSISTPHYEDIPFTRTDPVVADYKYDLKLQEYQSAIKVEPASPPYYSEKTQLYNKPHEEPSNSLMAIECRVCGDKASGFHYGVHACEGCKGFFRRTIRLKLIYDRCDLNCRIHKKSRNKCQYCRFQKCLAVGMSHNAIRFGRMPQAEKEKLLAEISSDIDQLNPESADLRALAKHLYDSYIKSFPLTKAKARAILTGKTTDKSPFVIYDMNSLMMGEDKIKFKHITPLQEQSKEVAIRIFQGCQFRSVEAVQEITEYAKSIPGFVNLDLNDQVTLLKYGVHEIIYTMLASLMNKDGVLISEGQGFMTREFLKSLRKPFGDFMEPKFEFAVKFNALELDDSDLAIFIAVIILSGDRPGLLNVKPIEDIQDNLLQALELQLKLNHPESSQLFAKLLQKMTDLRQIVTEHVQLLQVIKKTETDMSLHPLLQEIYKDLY
Chain of Peroxisome proliferator-activated receptor gamma/Nuclear receptor coactivator 1 (Q15788 whole entry, further chain): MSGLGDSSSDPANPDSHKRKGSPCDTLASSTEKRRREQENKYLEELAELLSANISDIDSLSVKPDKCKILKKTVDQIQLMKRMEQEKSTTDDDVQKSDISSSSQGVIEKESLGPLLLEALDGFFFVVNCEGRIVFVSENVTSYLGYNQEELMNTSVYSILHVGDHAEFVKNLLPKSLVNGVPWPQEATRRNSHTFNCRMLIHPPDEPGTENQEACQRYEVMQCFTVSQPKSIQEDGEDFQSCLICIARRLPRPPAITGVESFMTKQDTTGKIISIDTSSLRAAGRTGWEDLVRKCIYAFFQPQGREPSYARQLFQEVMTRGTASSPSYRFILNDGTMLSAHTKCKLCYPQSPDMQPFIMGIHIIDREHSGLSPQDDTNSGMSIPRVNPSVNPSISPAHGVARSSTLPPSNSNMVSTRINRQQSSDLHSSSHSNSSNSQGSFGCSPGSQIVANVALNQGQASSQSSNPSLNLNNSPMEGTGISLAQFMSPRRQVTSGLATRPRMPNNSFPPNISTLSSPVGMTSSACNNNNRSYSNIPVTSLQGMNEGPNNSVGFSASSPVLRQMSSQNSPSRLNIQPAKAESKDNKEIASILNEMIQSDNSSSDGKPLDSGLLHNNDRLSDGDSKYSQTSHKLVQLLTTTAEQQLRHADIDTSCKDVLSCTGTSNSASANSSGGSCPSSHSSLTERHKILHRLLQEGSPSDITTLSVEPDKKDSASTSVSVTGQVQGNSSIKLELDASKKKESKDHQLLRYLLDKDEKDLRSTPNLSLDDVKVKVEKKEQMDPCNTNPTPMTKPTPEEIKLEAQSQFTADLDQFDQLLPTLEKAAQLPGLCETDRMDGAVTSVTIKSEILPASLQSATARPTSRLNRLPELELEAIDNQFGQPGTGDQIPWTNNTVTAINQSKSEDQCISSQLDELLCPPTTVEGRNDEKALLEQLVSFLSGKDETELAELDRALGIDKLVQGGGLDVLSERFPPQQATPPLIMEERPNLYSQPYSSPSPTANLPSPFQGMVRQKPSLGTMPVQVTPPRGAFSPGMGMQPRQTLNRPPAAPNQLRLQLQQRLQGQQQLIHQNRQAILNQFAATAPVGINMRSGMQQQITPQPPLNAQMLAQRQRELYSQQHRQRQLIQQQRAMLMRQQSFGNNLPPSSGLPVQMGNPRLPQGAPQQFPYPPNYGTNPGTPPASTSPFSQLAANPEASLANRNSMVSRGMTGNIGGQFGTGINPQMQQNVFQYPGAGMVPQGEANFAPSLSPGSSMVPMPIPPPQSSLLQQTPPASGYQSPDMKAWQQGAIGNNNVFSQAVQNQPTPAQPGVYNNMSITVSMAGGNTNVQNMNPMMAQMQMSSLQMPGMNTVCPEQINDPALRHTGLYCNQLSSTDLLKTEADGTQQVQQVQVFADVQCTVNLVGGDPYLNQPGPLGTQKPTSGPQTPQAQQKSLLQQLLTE

[4] = biological target: Peroxisome proliferator-activated receptor gamma/Nuclear receptor coactivator 2 (Homo sapiens, UniProt P37231); assay: TR-FRET dose response biochemical High Throughput Screening assay for agonists of the steroid receptor coactivator 2 (SRC-2) recruitment by the peroxisome proliferator-activated receptor gamma (PPAR gamma): non-selective agonists. [Related pubchem assays: 1297, 1032 ]; assay type: functional
Chain of Peroxisome proliferator-activated receptor gamma/Nuclear receptor coactivator 2 (P37231 whole entry): as the sequence (P37231 whole entry) above
Chain of Peroxisome proliferator-activated receptor gamma/Nuclear receptor coactivator 2 (Q15596 whole entry, further chain): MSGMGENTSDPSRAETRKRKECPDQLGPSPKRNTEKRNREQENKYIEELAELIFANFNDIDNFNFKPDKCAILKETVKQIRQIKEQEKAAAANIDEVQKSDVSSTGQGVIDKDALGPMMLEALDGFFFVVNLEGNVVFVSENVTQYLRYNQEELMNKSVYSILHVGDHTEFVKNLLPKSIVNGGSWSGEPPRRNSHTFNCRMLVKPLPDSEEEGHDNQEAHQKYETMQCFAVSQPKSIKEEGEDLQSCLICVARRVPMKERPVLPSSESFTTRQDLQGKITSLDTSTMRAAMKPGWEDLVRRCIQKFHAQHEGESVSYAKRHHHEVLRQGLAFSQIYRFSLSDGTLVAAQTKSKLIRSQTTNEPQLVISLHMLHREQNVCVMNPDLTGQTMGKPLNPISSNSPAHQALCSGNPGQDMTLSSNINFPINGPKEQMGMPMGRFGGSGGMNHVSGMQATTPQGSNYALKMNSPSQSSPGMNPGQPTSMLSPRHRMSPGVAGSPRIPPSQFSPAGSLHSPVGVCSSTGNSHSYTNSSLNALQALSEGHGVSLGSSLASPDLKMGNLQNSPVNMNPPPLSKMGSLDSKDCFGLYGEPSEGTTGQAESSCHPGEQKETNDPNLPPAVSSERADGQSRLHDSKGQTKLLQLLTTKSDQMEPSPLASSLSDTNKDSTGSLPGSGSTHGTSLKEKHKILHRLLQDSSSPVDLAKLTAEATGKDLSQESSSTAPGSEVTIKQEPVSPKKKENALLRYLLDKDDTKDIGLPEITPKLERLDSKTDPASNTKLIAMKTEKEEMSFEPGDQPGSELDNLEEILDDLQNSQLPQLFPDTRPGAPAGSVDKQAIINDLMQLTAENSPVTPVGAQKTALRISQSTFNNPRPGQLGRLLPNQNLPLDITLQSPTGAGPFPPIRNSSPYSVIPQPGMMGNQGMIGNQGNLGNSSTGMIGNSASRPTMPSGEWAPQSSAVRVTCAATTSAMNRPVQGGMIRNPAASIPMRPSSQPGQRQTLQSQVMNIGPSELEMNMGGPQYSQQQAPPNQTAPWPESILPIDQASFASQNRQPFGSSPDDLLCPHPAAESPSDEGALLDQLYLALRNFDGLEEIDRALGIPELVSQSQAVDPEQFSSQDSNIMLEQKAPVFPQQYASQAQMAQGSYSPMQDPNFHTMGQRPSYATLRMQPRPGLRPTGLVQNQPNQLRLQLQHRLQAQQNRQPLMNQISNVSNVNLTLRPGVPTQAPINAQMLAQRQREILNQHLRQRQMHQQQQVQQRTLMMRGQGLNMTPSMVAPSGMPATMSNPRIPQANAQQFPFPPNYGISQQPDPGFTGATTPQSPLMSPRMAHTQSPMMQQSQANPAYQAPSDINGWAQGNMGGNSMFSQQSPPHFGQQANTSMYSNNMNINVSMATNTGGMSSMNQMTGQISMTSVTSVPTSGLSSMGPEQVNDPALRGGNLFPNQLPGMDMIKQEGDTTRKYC

Genome polyprotein = Genome polyprotein (dengue virus type 2, UniProt P29990); assay: Dengue-2 NS5 methyltransferase inhibitors, primary screen, biochemical, confirmation dose response (AID 588689); assay type: functional
[5] = biological target: T2, Short transient receptor potential channel 4 (Mus musculus, UniProt Q9QUQ5); assay: mouse TRPC4 channel inhibitors, dose response, cell-based, HEK293 TRPC4/mu-opioid, Fluo-4 calcium (AID 434942); assay type: functional;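 further: potency of inhibitors blocking the TRPC4 calcium response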
T2 sequence (Q9QUQ5 whole entry): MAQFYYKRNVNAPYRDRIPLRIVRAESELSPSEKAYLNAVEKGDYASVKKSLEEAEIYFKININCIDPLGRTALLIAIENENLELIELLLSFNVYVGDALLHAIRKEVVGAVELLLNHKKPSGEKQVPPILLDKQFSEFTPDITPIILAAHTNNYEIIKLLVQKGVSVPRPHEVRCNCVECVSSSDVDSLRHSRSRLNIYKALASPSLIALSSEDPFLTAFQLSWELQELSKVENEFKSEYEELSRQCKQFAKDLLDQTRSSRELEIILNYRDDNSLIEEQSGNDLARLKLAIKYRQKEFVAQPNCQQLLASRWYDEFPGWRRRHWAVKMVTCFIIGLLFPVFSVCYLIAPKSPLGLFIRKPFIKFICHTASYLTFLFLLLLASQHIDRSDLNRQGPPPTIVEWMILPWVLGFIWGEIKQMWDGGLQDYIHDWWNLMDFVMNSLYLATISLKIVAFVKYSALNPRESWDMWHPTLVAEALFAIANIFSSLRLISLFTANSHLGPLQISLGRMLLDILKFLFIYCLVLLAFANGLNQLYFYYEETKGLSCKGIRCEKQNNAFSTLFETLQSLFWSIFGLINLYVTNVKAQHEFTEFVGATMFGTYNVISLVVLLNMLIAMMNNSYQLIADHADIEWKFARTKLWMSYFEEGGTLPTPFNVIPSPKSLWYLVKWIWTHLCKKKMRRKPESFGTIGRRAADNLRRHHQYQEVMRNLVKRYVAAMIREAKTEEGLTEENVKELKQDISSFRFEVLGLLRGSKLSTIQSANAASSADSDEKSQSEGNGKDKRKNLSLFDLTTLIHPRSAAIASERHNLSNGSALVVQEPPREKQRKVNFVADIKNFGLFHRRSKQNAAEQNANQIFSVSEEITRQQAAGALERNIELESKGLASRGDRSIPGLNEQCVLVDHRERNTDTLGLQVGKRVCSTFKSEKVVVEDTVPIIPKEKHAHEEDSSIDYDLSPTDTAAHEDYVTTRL

[6] = biological target: FAD-linked sulfhydryl oxidase ALR (Homo sapiens, UniProt P55789); assay: inhibitors of human ALR sulfhydryl oxidase, dose response, biochemical, H2O2 detection, luminescence, cherry-pick (AID 493248)
Chain of FAD-linked sulfhydryl oxidase ALR (P55789 whole entry): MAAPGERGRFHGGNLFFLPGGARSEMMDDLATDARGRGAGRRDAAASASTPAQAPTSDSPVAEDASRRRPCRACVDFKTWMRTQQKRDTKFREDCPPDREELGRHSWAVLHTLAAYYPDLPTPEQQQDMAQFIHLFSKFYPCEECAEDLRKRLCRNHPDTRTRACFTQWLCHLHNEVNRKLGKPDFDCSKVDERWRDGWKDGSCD

[7] = Luminescence Cell-Based Dose Confirmation HTS to Identify Activators of 5'UTR Stem-Loop Driven Alpha-Synuclein mRNA Translation in H4 Neuroglioblastoma Cells. [Related pubchem assays: 1829 (Project Summary), 1814 (Primary HTS)]; assay type: functional
[8] = Luminescence Cell-Based Dose Response HTS to Identify Activators of Luciferase Translation or Activity in H4 […] Cells. [Related pubchem assays: 1829 (Project Summary), 1814 (Primary HTS)]; assay type: functional
H4 = assay: Luminescence Cell-Based Dose Response HTS to Identify Activators of 5'UTR Stem-Loop Driven Prion Protein mRNA Translation in H4 Neuroglioblastoma Cells. [Related pubchem assays: 1829 (Project Summary), 1814 (Primary HTS)]; assay type: functional; details: Homo sapiens
Escherichia coli = assay: microbe, parasite or virus in culture
Vero [9] = assay: cells; assay type: functional, cell-based; details: Chlorocebus sabaeus
Vero [10] = assay: cells; assay type: functional; details: Chlorocebus sabaeus
[11] = biological target: T3, High affinity choline transporter 1 (Homo sapiens, UniProt Q9GZV3); assay: CHT inhibitors, dose response, cell-based, 5-point CRC, membrane potential dye (AID 504840); assay type: functional
T3 sequence (Q9GZV3 whole entry): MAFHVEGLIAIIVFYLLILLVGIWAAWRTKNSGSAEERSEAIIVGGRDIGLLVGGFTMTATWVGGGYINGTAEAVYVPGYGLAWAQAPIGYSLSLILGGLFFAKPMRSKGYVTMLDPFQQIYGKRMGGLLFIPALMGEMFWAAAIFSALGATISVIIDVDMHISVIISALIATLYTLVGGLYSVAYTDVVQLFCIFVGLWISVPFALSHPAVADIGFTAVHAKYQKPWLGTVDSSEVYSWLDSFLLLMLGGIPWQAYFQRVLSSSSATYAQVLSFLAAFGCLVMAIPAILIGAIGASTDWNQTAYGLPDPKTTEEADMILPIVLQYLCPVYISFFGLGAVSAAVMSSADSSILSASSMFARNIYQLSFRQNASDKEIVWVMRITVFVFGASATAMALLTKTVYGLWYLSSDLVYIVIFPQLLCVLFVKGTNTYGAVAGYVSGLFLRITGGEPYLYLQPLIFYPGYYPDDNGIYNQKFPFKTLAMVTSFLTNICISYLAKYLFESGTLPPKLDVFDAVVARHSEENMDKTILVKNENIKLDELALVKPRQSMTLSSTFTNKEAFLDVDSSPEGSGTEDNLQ

INS1 = assay: beta cell apoptosis inhibitors, cytokine rescue, dose response, luminescence, retest (AID 449756); assay type: functional, cell-based; details: Rattus norvegicus;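 further: cell death triggered by IL-1 beta plus TNF-alpha plus IFN-gamma mixture; protective hits raise ATP signal compared with cytokine alone wells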
[12] = biological target: Alkaline phosphatase, placental type (Homo sapiens, UniProt P05187); assay: PLAP enzyme inhibitors, confirmation, biochemical, luminescence (AID 1512); assay type: functional
Chain of Alkaline phosphatase, placental type (P05187 whole entry): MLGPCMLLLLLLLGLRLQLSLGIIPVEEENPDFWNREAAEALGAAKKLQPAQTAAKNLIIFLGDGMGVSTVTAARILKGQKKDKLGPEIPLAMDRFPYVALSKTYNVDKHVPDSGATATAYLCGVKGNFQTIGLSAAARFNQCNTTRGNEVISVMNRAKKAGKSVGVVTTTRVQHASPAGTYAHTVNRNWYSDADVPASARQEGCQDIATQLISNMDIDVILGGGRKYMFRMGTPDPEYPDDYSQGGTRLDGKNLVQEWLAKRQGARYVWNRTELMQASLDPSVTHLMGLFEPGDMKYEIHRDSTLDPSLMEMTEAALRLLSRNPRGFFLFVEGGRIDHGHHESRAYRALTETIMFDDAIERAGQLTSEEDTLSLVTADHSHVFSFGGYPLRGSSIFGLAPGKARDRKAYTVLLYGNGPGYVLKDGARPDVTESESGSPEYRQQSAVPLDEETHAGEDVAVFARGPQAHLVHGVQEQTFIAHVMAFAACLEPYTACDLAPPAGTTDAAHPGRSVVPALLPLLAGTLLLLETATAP

[13] = biological target: T4, Alkaline phosphatase, tissue-nonspecific isozyme (Homo sapiens, UniProt P05186); assay: human TNAP enzyme inhibitors, SAR follow-up, biochemical, luminescent, dose response (AID 1056)
T4 sequence (P05186 whole entry): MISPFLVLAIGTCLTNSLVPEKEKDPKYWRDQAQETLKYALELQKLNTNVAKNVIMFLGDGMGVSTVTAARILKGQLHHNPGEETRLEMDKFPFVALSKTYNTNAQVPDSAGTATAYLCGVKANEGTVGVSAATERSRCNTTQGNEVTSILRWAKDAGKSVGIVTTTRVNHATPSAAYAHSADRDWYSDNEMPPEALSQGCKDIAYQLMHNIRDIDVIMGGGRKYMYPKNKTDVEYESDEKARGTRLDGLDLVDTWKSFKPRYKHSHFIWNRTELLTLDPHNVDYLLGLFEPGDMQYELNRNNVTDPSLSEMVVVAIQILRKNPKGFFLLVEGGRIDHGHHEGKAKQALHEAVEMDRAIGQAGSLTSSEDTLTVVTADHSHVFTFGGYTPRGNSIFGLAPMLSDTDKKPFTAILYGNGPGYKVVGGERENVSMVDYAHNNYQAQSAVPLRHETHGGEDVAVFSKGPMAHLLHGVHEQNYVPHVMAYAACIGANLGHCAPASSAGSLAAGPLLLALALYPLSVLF

[14] = inhibitors of firefly luciferase expression or activity, dose response, H4 neuroglioma cells, luminescence (AID 1990); assay type: functional, cell-based
[15] = cytotoxicity in HEK-293T cells, dose response, cytotoxicity control for TCR NF-kB inhibitor project, luminescence, T-cell screen hits (AID 489026); assay type: functional, cell-based;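 further: cells exposed to compound about 14 hours before the viability readout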
BJ [16] = assay: cytotoxicity toward BJ-TERT fibroblasts, dose response, cell-based, RAS-independent, luminescence (AID 1933); assay type: functional; details: Homo sapiens
BJ [17] = assay: cytotoxicity toward BJ-TERT-LT-ST fibroblasts, dose response, cell-based, RAS-independent, luminescence (AID 1935); assay type: functional; details: Homo sapiens;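 further: BJ fibroblasts immortalized with TERT plus LT and ST oncogenes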
[18] = Luminescence Cell-Based Dose Response HTS to Identify Inhibitors of 5'UTR Stem-Loop Driven Prion Protein mRNA Translation in H4 Neuroglioblastoma Cells. [Related pubchem assays: 1827 (Project Summary), 1813 (Primary HTS)]; assay type: functional
[19] = inhibitors of SNCA 5'UTR-driven reporter translation, confirmation, H4 neuroglioma cells, luminescence (AID 1988); assay type: functional, cell-based
[20] = cytotoxicity toward DRD oncogenic fibroblasts, dose response, cell-based, non-viral oncogenic, luminescence (AID 1934); assay type: functional; details: Homo sapiens
[21] = Luminescence Cell-Based Dose Retest to Confirm Inhibitors of Cancer Stem Cells. [Related pubchem assays (depositor defined):AID2717, AID2721]; assay type: functional; details: Homo sapiens
[22] = cytotoxicity toward NIH3T3 fibroblasts, dose response, counter-screen, cell-based, ATP luminescence, mouse fibroblasts (AID 2010); assay type: functional;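 further: cells exposed to compound for about 90 hours before reading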
[23] = inhibitors of intracellular T. cruzi replication, confirmation, NIH3T3 host cells, beta-gal luminescence (AID 2044); assay type: functional, cell-based;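 further: intracellular parasites grown in NIH/3T3 mouse fibroblasts as host cells; luminescent beta-galactosidase reporter signal from transgenic T. cruzi replicating inside host cells; inhibitors lower the luminescence signal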

## COc1ccc(CC(=O)NNC(=O)COc2ccc3ccccc3c2)cc1
[1]
  EC50: 3.65 µM (active)
[2]
  IC50: 9.26 µM (active)
[3]
  EC50: 2 µM (active)
[4]
  EC50: 1.93 µM (active)

## O=C(CSc1ncnc2c1oc1ccccc12)Nc1cccc(C(F)(F)F)c1
[1]
  EC50: > 79.4 µM (not active)
[3]
  EC50: > 79.4 µM (inactive)
[4]
  EC50: 23 µM (not active)

## COc1cccc(/C=C2\SC(=S)N(NS(=O)(=O)c3ccc(C)cc3)C2=O)c1OC
Genome polyprotein
  IC50: 36.2 µM (active)
[5]
  EC50: 8.41 µM (active)
[6]
  AC50: 9.05 µM (active)

## Cc1cc2ncn(CCOc3ccccc3)c2cc1C
[7]
  EC50: 19.4 µM (active)
[8]
  EC50: 39 µM (active)
H4
  EC50: 38.8 µM (active)
Escherichia coli
  AC50: 41.4 µM (active)

## CC(=O)/C=C1/C(=O)Nc2ccccc21
Vero [9]
  IC50: > 25 µM (active)
Vero [10]
  CC50: 21.9 µM (active)

## CC(=O)Nc1ccc(Nc2cc(C)c3ccccc3n2)cc1
[11]
  IC50: 11.2 µM (active)

## Cc1ccccc1OCCn1c(C)nc2ccccc21
[5]
  EC50: 1.19 µM (active)
INS1
  AC50: 8.1 µM (active)

## CC(=O)Nc1cc[n+](CC(=O)c2cccc([N+](=O)[O-])c2)cc1
Vero [9]
  IC50: 6.55 µM (active)

## CC(C)(C)c1ccc(C(=O)n2cnc3ccccc32)cc1
Escherichia coli
  AC50: 33.1 µM (active)

## CCc1nccn1CC(=O)c1ccc(O)c(O)c1
[12]
  IC50: 3.73 µM (active)
[13]
  IC50: 62.5 µM (active)

## Nc1nnc(-c2cc3ccccc3oc2=O)s1
[12]
  IC50: > 100 µM (inactive)
[13]
  IC50: > 100 µM (inactive)

## COc1cc(S(=O)(=O)Nc2cc(C)cc(C)c2)ccc1F
Escherichia coli
  AC50: 64.9 µM (active)

## Cc1cc(C)c2c(O)nc(SCC(=O)c3ccc(O)c(O)c3)nc2n1
[12]
  IC50: 8.77 µM (active)
[13]
  IC50: > 100 µM (inactive)

## COc1cccc(-c2cc(O)c3cc(NC(=O)c4ccc(N(C)C)cc4)ccc3n2)c1
[14]
  EC50: 0.334 µM (active)
[15]
  IC50: > 80 µM (inactive)
BJ [16]
  EC50: 0.664 µM (active)
BJ [17]
  EC50: 0.729 µM (inconclusive)
[18]
  EC50: 1.24 µM (active)
[19]
  EC50: 0.296 µM (active)
[20]
  EC50: 0.599 µM (active)
[21]
  AC50: 0.477 µM (active)

## CC(C)COC(=O)CNc1nnc(S)nc1O
[1]
  EC50: 37.9 µM (not active)
[3]
  EC50: 2.86 µM (active)
[4]
  EC50: 3.42 µM (active)

## Cc1nc2ccccc2c(=O)n1CCCO
Escherichia coli
  AC50: 27.2 µM (active)

## CC(=O)Nc1ccc(CCNC(=O)c2ccc3ccccc3c2O)cc1
Vero [9]
  IC50: > 25 µM (active)

## c1ccc(CN2CCN(Cc3c[nH]c4ccccc34)CC2)cc1
[22]
  EC50: > 30 µM (not active)
[5]
  EC50: 5.96 µM (active)
[23]
  EC50: 0.277 µM (active)
INS1
  AC50: 8.01 µM (active)

## Cc1cc(C)cc(NC(=O)c2cc(C)n(Cc3cccs3)c2C)c1
[15]
  IC50: > 80 µM (inactive)
